In brackets after ≈: the same amount, converted by molar mass. Where a SMILES comes first, the peptide text is derived from it. Bridges are numbered along the chain shown (N, C = ends). Roman numbers before positions name the chains, in order. [ ]: non-standard residue; d: D form. Leu(3R-OH) = CC(C)[C@@H](O)[C@H](N)C(=O)O; Thr(ol) = C[C@@H](O)[C@H](N)CO; Tle = CC(C)(C)[C@H](N)C(=O)O; Hiv = CC(C)[C@H](O)C(=O)O; dDab = NCC[C@@H](N)C(=O)O; hSer = N[C@@H](CCO)C(=O)O; Dab = NCC[C@H](N)C(=O)O; Abu = CC[C@H](N)C(=O)O; Dap = NC[C@H](N)C(=O)O
How the values were obtained:
Format in all cases: cell-based
[1] = system: Acinetobacter baumannii 872842; conditions: 872842
Procedure, shortened: (§1)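 CLSI broth microdilution in cation-adjusted Mueller-Hinton II broth with 0.002% polysorbate 80 (final), inoculum appr. 10^6 CFU/mL, peptides in serial two-fold dilutions. MIC (μg/mL) is the lowest concentration without visible growth after 18-20 h at 35° C.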

[2] = system: Acinetobacter baumannii DSM 30008; conditions: DSM 30008
Procedure, shortened: as §1

[3] = system: Enterobacter cloacae 848840; conditions: 848840
Procedure, shortened: as §1

Escherichia coli 926415 = conditions: 926415
Procedure, shortened: as §1

[4] = system: Escherichia coli ATCC 25922; conditions: ATCC 25922
Procedure, shortened: as §1

[5] = system: Klebsiella pneumoniae 968733; conditions: 968733
Procedure, shortened: as §1

[6] = system: Klebsiella pneumoniae SSI #3010; conditions: SSI #3010
Procedure, shortened: as §1

[7] = system: Pseudomonas aeruginosa ATCC 27853; conditions: ATCC 27853
Procedure, shortened: as §1

[8] = system: human red blood cells (hRBC); test: Hemolysis; conditions: red cells of human, 1 h, 200
Procedure, shortened: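 Read-out is supernatant absorbance at 540 nm, normalised to full lysis by 2% Triton X-100 and zero lysis by PBS with 10% water. Peptides (200 μg/mL) were exposed to 20% v/v washed human erythrocytes at 37° C for 1 h under shaking.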

Structure (SMILES)	MIC [1]	MIC [2]	MIC [3]	MIC (Escherichia coli 926415)	MIC [4]	MIC [5]	MIC [6]	MIC [7]	Hemolysis at 200 μg/mL [8]
CC(C)C[C@@H]1NC(=O)[C@H](CCN)NC(=O)[C@H](CCN)NC(=O)[C@H](CC(C)C)NC(=O)[C@@H](CC(C)C)NC(=O)[C@H](CCN)NC(=O)[C@@H](NC(=O)[C@@H](CCN)NC(=O)CC[C@@H]2NC(=O)[C@H](CCN)NC(=O)[C@H](Cc3ccc(O)cc3)NC(=O)[C@@H](NC(=O)[C@@H](O)C(C)C)CSSC[C@@H](C(=O)N[C@H](CO)[C@@H](C)O)NC(=O)[C@H](C(C)(C)C)NC(=O)[C@H](CO)NC(=O)[C@H](Cc3c[nH]c4ccccc34)NC(=O)[C@H](CCO)NC(=O)[C@@H](CCN)NC2=O)CCNC1=O [Ex. 127] (I: H-[Hiv]CY[Dab]E[dDab][hSer]WS[Tle]C[Thr(ol)] / II: [dDab][Dab][Dab][dL]L[Dab][Dab]L; disulfide I:2-I:11; amide I:5-II:N; lactam II:2-II:C)	0.0625 µg/mL (≈ 0.0283 µM)	0.0625 µg/mL (≈ 0.0283 µM)	0.125 µg/mL (≈ 0.0565 µM)	0.125 µg/mL (≈ 0.0565 µM)	0.0625 µg/mL (≈ 0.0283 µM)	0.5 µg/mL (≈ 0.226 µM)	0.25 µg/mL (≈ 0.113 µM)	0.5 µg/mL (≈ 0.226 µM)	2%
CC(=O)N[C@H](C(=O)N[C@H]1CSSC[C@@H](C(=O)N[C@@H](CO)C(N)=O)NC(=O)[C@H](C(C)(C)C)NC(=O)[C@H](CO)NC(=O)[C@H](Cc2c[nH]c3ccccc23)NC(=O)[C@H](CO)NC(=O)[C@@H](CCN)NC(=O)[C@H](CCC(=O)N[C@@H](CCN)C(=O)N[C@H](C(=O)N[C@@H](CN)C(=O)N[C@H]2CCNC(=O)[C@H]([C@@H](C)O)NC(=O)[C@H](CCN)NC(=O)[C@H](CCN)NC(=O)[C@H](CC(C)C)NC(=O)[C@@H](CC(C)C)NC(=O)[C@H](CCN)NC2=O)[C@@H](C)O)NC(=O)[C@H](CO)NC(=O)[C@H](Cc2ccc(O)cc2)NC1=O)C(C)C [Ex. 132] (I: Ac-VCYSE[dDab]SWS[Tle]CS-NH2 / II: [Dab]T[Dap][Dab][Dab][dL]L[Dab][Dab]T; disulfide I:2-I:11; amide I:5-II:N; lactam II:4-II:C)	0.0625 µg/mL (≈ 0.026 µM)	0.03125 µg/mL (≈ 0.013 µM)	0.125 µg/mL (≈ 0.0521 µM)	0.0625 µg/mL (≈ 0.026 µM)	0.03125 µg/mL (≈ 0.013 µM)	0.125 µg/mL (≈ 0.0521 µM)	0.125 µg/mL (≈ 0.0521 µM)	0.125 µg/mL (≈ 0.0521 µM)	2%
CC(=O)N[C@H](C(=O)N[C@H]1CSSC[C@@H](C(=O)N[C@@H](CO)C(N)=O)NC(=O)[C@H](C(C)(C)C)NC(=O)[C@H](CO)NC(=O)[C@H](Cc2c[nH]c3ccccc23)NC(=O)[C@H](CCN)NC(=O)[C@@H](CCN)NC(=O)[C@H](CCC(=O)N[C@@H](CCN)C(=O)N[C@H](C(=O)N[C@@H](CN)C(=O)N[C@H]2CCNC(=O)[C@H]([C@@H](C)O)NC(=O)[C@H](CCN)NC(=O)[C@H](CCN)NC(=O)[C@H](CC(C)C)NC(=O)[C@@H](CC(C)C)NC(=O)[C@H](CCN)NC2=O)[C@@H](C)O)NC(=O)[C@H](CO)NC(=O)[C@H](Cc2ccc(O)cc2)NC1=O)C(C)C [Ex. 133] (I: Ac-VCYSE[dDab][Dab]WS[Tle]CS-NH2 / II: [Dab]T[Dap][Dab][Dab][dL]L[Dab][Dab]T; disulfide I:2-I:11; amide I:5-II:N; lactam II:4-II:C)	0.03125 µg/mL (≈ 0.013 µM)	0.0625 µg/mL (≈ 0.0259 µM)	0.25 µg/mL (≈ 0.104 µM)	0.0625 µg/mL (≈ 0.0259 µM)	0.03125 µg/mL (≈ 0.013 µM)	0.125 µg/mL (≈ 0.0518 µM)	0.125 µg/mL (≈ 0.0518 µM)	0.25 µg/mL (≈ 0.104 µM)	2%
CC(=O)N[C@H](C(=O)N[C@H]1CSSC[C@@H](C(=O)N[C@H](C(N)=O)[C@@H](C)O)NC(=O)[C@H](C(C)(C)C)NC(=O)[C@H](CCC(=O)O)NC(=O)[C@H](Cc2c[nH]c3ccccc23)NC(=O)[C@H](CCN)NC(=O)[C@@H](CCN)NC(=O)[C@H](CCC(=O)N[C@@H](CCN)C(=O)N[C@H](C(=O)N[C@@H](CN)C(=O)N[C@H]2CCNC(=O)[C@H]([C@@H](C)O)NC(=O)[C@H](CCN)NC(=O)[C@H](CCN)NC(=O)[C@H]([C@H](O)C(C)C)NC(=O)[C@@H](CC(C)C)NC(=O)[C@H](CCN)NC2=O)[C@@H](C)O)NC(=O)[C@H](CO)NC(=O)[C@H](Cc2ccc(O)cc2)NC1=O)C(C)C [Ex. 134] (I: Ac-VCYSE[dDab][Dab]WE[Tle]CT-NH2 / II: [Dab]T[Dap][Dab][Dab][dL][Leu(3R-OH)][Dab][Dab]T; disulfide I:2-I:11; amide I:5-II:N; lactam II:4-II:C)	0.0625 µg/mL (≈ 0.0252 µM)	0.03125 µg/mL (≈ 0.0126 µM)	0.125 µg/mL (≈ 0.0503 µM)	0.125 µg/mL (≈ 0.0503 µM)	0.03125 µg/mL (≈ 0.0126 µM)	0.125 µg/mL (≈ 0.0503 µM)	0.03125 µg/mL (≈ 0.0126 µM)	0.125 µg/mL (≈ 0.0503 µM)	3%
CC(=O)N[C@H](C(=O)N[C@H]1CSSC[C@@H](C(=O)N[C@H](C(N)=O)[C@@H](C)O)NC(=O)[C@H](C(C)(C)C)NC(=O)[C@H](CCC(=O)O)NC(=O)[C@H](Cc2c[nH]c3ccccc23)NC(=O)[C@H](CO)NC(=O)[C@@H](CCN)NC(=O)[C@H](CCC(=O)N[C@@H](CCN)C(=O)N[C@H](C(=O)N[C@@H](CN)C(=O)N[C@H]2CCNC(=O)[C@H]([C@@H](C)O)NC(=O)[C@H](CCN)NC(=O)[C@H](CCN)NC(=O)[C@H](CC(C)C)NC(=O)[C@@H](CC(C)C)NC(=O)[C@H](CCN)NC2=O)[C@@H](C)O)NC(=O)[C@H](CCN)NC(=O)[C@H](Cc2ccc(O)cc2)NC1=O)C(C)C [Ex. 135] (I: Ac-VCY[Dab]E[dDab]SWE[Tle]CT-NH2 / II: [Dab]T[Dap][Dab][Dab][dL]L[Dab][Dab]T; disulfide I:2-I:11; amide I:5-II:N; lactam II:4-II:C)	0.03125 µg/mL (≈ 0.0127 µM)	0.03125 µg/mL (≈ 0.0127 µM)	0.0625 µg/mL (≈ 0.0253 µM)	0.0625 µg/mL (≈ 0.0253 µM)	0.03125 µg/mL (≈ 0.0127 µM)	0.125 µg/mL (≈ 0.0506 µM)	0.0625 µg/mL (≈ 0.0253 µM)	0.125 µg/mL (≈ 0.0506 µM)	<1%
CC[C@@H]1NC(=O)[C@@H](CC(C)C)NC(=O)[C@H](CCN)NC(=O)[C@@H](NC(=O)[C@H](CN)NC(=O)[C@@H](NC(=O)[C@H](CCN)NC(=O)CC[C@@H]2NC(=O)[C@H](CCN)NC(=O)[C@H](Cc3ccc(O)cc3)NC(=O)[C@@H](NC(=O)[C@@H](NC(C)=O)C(C)C)CSSC[C@@H](C(=O)N[C@@H](CO)C(N)=O)NC(=O)[C@H](C(C)(C)C)NC(=O)[C@H](CO)NC(=O)[C@H](Cc3c[nH]c4ccccc34)NC(=O)[C@H](CO)NC(=O)[C@@H](CCN)NC2=O)[C@@H](C)O)CCNC(=O)[C@H]([C@@H](C)O)NC(=O)[C@H](CCN)NC(=O)[C@H](CCN)NC1=O [Ex. 136] (I: Ac-VCY[Dab]E[dDab]SWS[Tle]CS-NH2 / II: [Dab]T[Dap][Dab][Dab][dL][Abu][Dab][Dab]T; disulfide I:2-I:11; amide I:5-II:N; lactam II:4-II:C)	0.03125 µg/mL (≈ 0.0131 µM)	0.03125 µg/mL (≈ 0.0131 µM)	0.0625 µg/mL (≈ 0.0262 µM)	0.0625 µg/mL (≈ 0.0262 µM)	0.03125 µg/mL (≈ 0.0131 µM)	0.0625 µg/mL (≈ 0.0262 µM)	0.0625 µg/mL (≈ 0.0262 µM)	0.25 µg/mL (≈ 0.105 µM)	3%
CC(=O)N[C@H](C(=O)N[C@H]1CSSC[C@@H](C(=O)N[C@H](C(N)=O)[C@@H](C)O)NC(=O)[C@H](C(C)(C)C)NC(=O)[C@H](CO)NC(=O)[C@H](Cc2c[nH]c3ccccc23)NC(=O)[C@H](CO)NC(=O)[C@@H](CCN)NC(=O)[C@H](CCC(=O)N[C@@H](CCN)C(=O)N[C@H](C(=O)N[C@@H](CN)C(=O)N[C@H]2CCNC(=O)[C@H]([C@@H](C)O)NC(=O)[C@H](CCN)NC(=O)[C@H](CCN)NC(=O)[C@H]([C@@H](C)O)NC(=O)[C@@H](CC(C)C)NC(=O)[C@H](CCN)NC2=O)[C@@H](C)O)NC(=O)[C@H](CCN)NC(=O)[C@H](Cc2ccc(O)cc2)NC1=O)C(C)C [Ex. 139] (I: Ac-VCY[Dab]E[dDab]SWS[Tle]CT-NH2 / II: [Dab]T[Dap][Dab][Dab][dL]T[Dab][Dab]T; disulfide I:2-I:11; amide I:5-II:N; lactam II:4-II:C)	0.0625 µg/mL (≈ 0.0259 µM)	0.0625 µg/mL (≈ 0.0259 µM)	0.125 µg/mL (≈ 0.0518 µM)	0.125 µg/mL (≈ 0.0518 µM)	0.0625 µg/mL (≈ 0.0259 µM)	0.25 µg/mL (≈ 0.104 µM)	0.0625 µg/mL (≈ 0.0259 µM)	0.25 µg/mL (≈ 0.104 µM)	2%
